Converted amounts (≈) assume the structure as drawn. Read-outs that look alike come from different tables or passages of the source.
Key:
Staphylococcus aureus = experiment: In vivo efficacy in mice infected intraperitoneally with Staphylococcus aureus (Table III); conditions: 4 h, read-out: ED50, S. auerus
Method: (§1) In-vivo efficacy determinations were performed by inoculating mice interaperitoneally with cultures of the infecting organism diluted to produce 90-100% mortality in control animals within seven days. The diluents used were trypticase soy broth for E. coli, Proteus sp. and Psuedomonas aeruginosa and 5% hog gastric mucin for Staphylococcus aureus infections. The compounds, dissolved or suspended in 0.25% methocel.cndot.H2 O were administered orally by intubation at the time of infection and again at four hours post-infection. Mortality was recorded daily until test termination and the 50 percent effective dose. ED50, was calculated by the Reed-Muench method (Reed, L. G. and Muench, H., "A simple method of estimating fifty percent end points." American Journal of Hygiene, 27, 1938, 493-497).

S. epidermidis = experiment: In vitro broth microdilution minimal inhibitory concentration, S. epidermidis (Table I); format: cell-based; conditions: Staphylococcus epidermidis, read-out: MIC (minimal inhibitory concentration), S. epidermidis
Excerpt: (§2) A list is presented in Table I of analogs which exert an in-vitro antibacterial effect.

E. Coli [1] = experiment: In vitro broth microdilution minimal inhibitory concentration, E. Coli (Table I); format: cell-based; conditions: Escherichia coli, read-out: MIC (minimal inhibitory concentration), E. Coli
Excerpt: as §2

E. coli [2] = experiment: In vivo efficacy in mice infected intraperitoneally with E. coli (Table III); conditions: Escherichia coli, 4 h, read-out: ED50, E. Coli
Method: as §1

[3] = mice, intraperitoneal infection, 5% hog gastric mucin, oral dosing at infection and four hours post-infection, Reed-Muench
[4] = broth microdilution, Mueller-Hinton broth, 24 hour
[5] = mice, intraperitoneal infection, trypticase soy broth, oral dosing at infection and four hours post-infection, Reed-Muench

Molecule CC(C)c1ccc(N2CC(CO)OC2=O)cc1 (racemic) [Example 39] has an ED50 (Staphylococcus aureus; [3]) of 116 mg/kg.

Molecule N#Cc1ccc(N2CC(CO)OC2=O)cc1 (racemic) [Example 42] has an ED50 (Staphylococcus aureus; [3]) of 66.4 mg/kg.

In the case of COC[C@@H]1CN(c2ccc(S(N)(=O)=O)cc2)C(=O)O1 [Example 33, l-4-[5-(Methoxymethyl)-2-oxooxazolidin-3-yl]benzenesulfonamide], the ED50 (Staphylococcus aureus; [3]) is reported as 59.6 mg/kg, the MIC (S. epidermidis; [4]) is reported as > 200 µg/mL and the MIC (E. Coli [1]; [4]) is reported as > 200 µg/mL.

NS(=O)(=O)c1ccc(N2CC(COC(=O)CCC(=O)O)OC2=O)cc1 (racemic) [Example 20, dl-Butanedioic acid, Mono Ester with 4-[5-(Hydroxymethyl)-2-oxooxazolidin-3-yl]benzenesulfonamide] was tested, and the ED50 (Staphylococcus aureus; [3]) was 85.3 mg/kg, the MIC (S. epidermidis; [4]) was > 100 µg/mL and the ED50 (E. coli [2]; [5]) was 77.3 mg/kg. The MIC (E. Coli [1]; [4]) was > 100 µg/mL.

In the case of C=CCOCC1CN(c2ccc(C(C)C)cc2)C(=O)O1 (racemic) [Example 40], the ED50 (Staphylococcus aureus; [3]) is reported as 79.8 mg/kg.

CC(=O)NS(=O)(=O)c1ccc(N2CC(CO)OC2=O)cc1 (stereo not shown) [Example 36, N-[4-[5-(Hydroxymethyl)-2-oxooxazolidin-3-yl]phenylsulfonyl]acetamide] was tested, and the ED50 (Staphylococcus aureus; [3]) was > 120 mg/kg, the MIC (S. epidermidis; [4]) was > 100 µg/mL and the ED50 (E. coli [2]; [5]) was 56.9 mg/kg. The MIC (E. Coli [1]; [4]) was > 100 µg/mL.

CS(C)=NS(=O)(=O)c1ccc(N2CC(CO)OC2=O)cc1 (racemic) [Example 15, dl-N-{4-[5-(Hydroxymethyl)-2-oxooxazolidin-3-yl]-phenylsulfonyl}-S,S-dimethylsulfilimine] was tested, and the ED50 (Staphylococcus aureus; [3]) was 48.5 mg/kg, the MIC (S. epidermidis; [4]) was > 100 µg/mL and the ED50 (E. coli [2]; [5]) was 118 mg/kg. For the same molecule, the MIC (E. Coli [1]; [4]) was > 100 µg/mL.

O=C1OC(CO)CN1c1ccc(S(=O)(=O)N(Cl)Cl)cc1 (racemic) [Example 11, dl-N,N-Dichloro-4-[5-(hydroxymethyl)-2-oxooxazolidin-3-yl]benzenesulfonamide] was tested, and the ED50 (Staphylococcus aureus; [3]) was 36.3 mg/kg, the MIC (S. epidermidis; [4]) was > 100 µg/mL and the ED50 (E. coli [2]; [5]) was 53.7 mg/kg. The MIC (E. Coli [1]; [4]) was > 100 µg/mL.

In the case of CC(=O)OCC1CN(c2ccc(S(N)(=O)=O)cc2)C(=O)O1 (racemic) [Example 17, dl-4-[5-(Acetoxymethyl)-2-oxooxazolidin-3-yl]benzenesulfonamide], the ED50 (Staphylococcus aureus; [3]) is reported as 47.1 mg/kg, the MIC (S. epidermidis; [4]) is reported as > 50 µg/mL and the ED50 (E. coli [2]; [5]) is reported as 48.9 mg/kg. For the same molecule, the MIC (E. Coli [1]; [4]) was > 50 µg/mL.

O=C(NS(=O)(=O)c1ccc(N2CC(CO)OC2=O)cc1)C(Cl)Cl (racemic) [Example 34, dl-2,2-Dichloro-N-[4-[5-(Hydroxymethyl)-2-oxooxazolidin-3-yl]phenylsulfonyl]acetamide] was tested, and the ED50 (Staphylococcus aureus; [3]) was 18.3 mg/kg, the MIC (S. epidermidis; [4]) was > 200 µg/mL and the MIC (E. Coli [1]; [4]) was > 200 µg/mL.

With COC[C@@H]1CN(c2ccc(S(C)(=O)=O)cc2)C(=O)O1 [Example 32, l-5-(Methoxymethyl)-3-[4-(methylsulfonyl)phenyl]-2-oxazolidinone] the ED50 (Staphylococcus aureus; [3]) was 5.1 mg/kg, the MIC (S. epidermidis; [4]) was 100 µg/mL (≈ 350 µM) and the ED50 (E. coli [2]; [5]) was 11.8 mg/kg. The MIC (E. Coli [1]; [4]) was > 200 µg/mL.

CNS(=O)(=O)c1ccc(N2CC(CO)OC2=O)cc1 (racemic) [Example 3b, dl-N-methyl-4-[5-(hydroxymethyl)-2-oxooxazolidin-3-yl]benzenesulfonamide] was tested, and the MIC (S. epidermidis; [4]) was 50 µg/mL (≈ 175 µM) and the MIC (E. Coli [1]; [4]) was > 200 µg/mL.

CON=C(C)c1ccc(N2CC(CO)OC2=O)cc1 (racemic) [Example 38, dl-5-Hydroxymethyl-3-[4-(1-methoxyiminoethyl)phenyl]-2-oxazolidinone] showed an ED50 (Staphylococcus aureus; [3]) of 76.6 mg/kg.

With NS(=O)(=O)c1ccc(N2CC(CO)OC2=O)cc1 (stereo not shown) [Example 1, 4-[5-(Hydroxymethyl)-2-oxooxazolidin-3-yl]benzenesulfonamide] the ED50 (Staphylococcus aureus; [3]) was 40.2 mg/kg, the MIC (S. epidermidis; [4]) was 100 µg/mL (≈ 367 µM) and the ED50 (E. coli [2]; [5]) was 19.7 mg/kg. For the same molecule, the MIC (E. Coli [1]; [4]) was 100 µg/mL (≈ 367 µM).

For COC[C@@H]1CN(c2ccc(SC)cc2)C(=O)O1 [Example 31, l-5-(Methoxymethyl)-3-[4-(methylthio)phenyl]-2-oxazolidinone], the ED50 (Staphylococcus aureus; [3]) was 54.6 mg/kg, the MIC (S. epidermidis; [4]) was > 200 µg/mL and the MIC (E. Coli [1]; [4]) was > 200 µg/mL.

[N-]=[N+]=NS(=O)(=O)c1ccc(N2CC(CO)OC2=O)cc1 (racemic) [Example 4, dl-4-[5-(Hydroxymethyl)-2-oxooxazolidin-3-yl]benzenesulfonyl Azide] gave an ED50 (Staphylococcus aureus; [3]) of 26 mg/kg, an MIC (S. epidermidis; [4]) of 4.2 µg/mL (≈ 14.1 µM) and an ED50 (E. coli [2]; [5]) of 17.9 mg/kg. The MIC (E. Coli [1]; [4]) was 12.5 µg/mL (≈ 41.9 µM).

For NNS(=O)(=O)c1ccc(N2CC(CO)OC2=O)cc1 (racemic) [Example 16, dl-3-[4-Hydrazinosulfonyl)phenyl]-5-(hydroxymethyl)-2-oxazolidin-2-one], the ED50 (Staphylococcus aureus; [3]) was 119 mg/kg, the MIC (S. epidermidis; [4]) was > 100 µg/mL and the ED50 (E. coli [2]; [5]) was > 360 mg/kg. For the same molecule, the MIC (E. Coli [1]; [4]) was > 100 µg/mL.

O=C1OC(CO)CN1c1ccc([N+](=O)[O-])cc1 (racemic) [Example 43] was tested, and the ED50 (Staphylococcus aureus; [3]) was 40 mg/kg and the ED50 (E. coli [2]; [5]) was > 360 mg/kg.

With O=C1OC(CO)CN1c1ccc(S(=O)(=O)NCl)cc1.[Na] (racemic) [Example 13, dl-N-Chloro-4-[5-(hydroxymethyl)-2-oxooxazolidin-3-yl]benzenesulfonamide, sodium salt] the ED50 (Staphylococcus aureus; po) was 47.4 mg/kg, the MIC (S. epidermidis; 24 h) was 100 µg/mL and the ED50 (E. coli [2]; po) was 43.6 mg/kg. The MIC (E. Coli [1]; 24 h) was 200 µg/mL.

O=C1O[C@H](CO)CN1c1ccc(S(=O)(=O)NC2CC2)cc1 [Example 9, l-4-[5-(Hydroxymethyl)-2-oxooxazolidin-3-yl]-N-cyclopropylbenzenesulfonamide] was tested, and the ED50 (Staphylococcus aureus; [3]) was 89.2 mg/kg, the MIC (S. epidermidis; [4]) was > 100 µg/mL and the MIC (E. Coli [1]; [4]) was > 100 µg/mL.

For CONS(=O)(=O)c1ccc(N2C[C@@H](CO)OC2=O)cc1 [Example 10, l-4-[5-(Hydroxymethyl)-2-oxooxazolidin-3-yl]-N-methoxybenzenesulfonamide], the ED50 (Staphylococcus aureus; [3]) was 52 mg/kg, the MIC (S. epidermidis; [4]) was 100 µg/mL (≈ 331 µM) and the MIC (E. Coli [1]; [4]) was > 100 µg/mL.

In the case of CC(=O)c1ccc(N2CC(CO)OC2=O)cc1 (racemic) [Example 41], the ED50 (Staphylococcus aureus; [3]) is reported as 35.8 mg/kg and the ED50 (E. coli [2]; [5]) is reported as 97.6 mg/kg.

CC(=NO)c1ccc(N2CC(CO)OC2=O)cc1 (racemic) [Example 37, dl-5-Hydroxymethyl-3-[4-(1-hydroxyiminoethyl)phenyl]-2-oxazolidinone] was tested, and the ED50 (Staphylococcus aureus; [3]) was 68 mg/kg, the MIC (S. epidermidis; [4]) was > 50 µg/mL and the MIC (E. Coli [1]; [4]) was > 50 µg/mL.

CNS(=O)(=O)c1ccc(N2C[C@@H](CO)OC2=O)cc1 [Example 6, l-4-[5-(Hydroxymethyl)-2-oxooxazolidin-3-yl]-N-methylbenzenesulfonamide] gave an ED50 (Staphylococcus aureus; [3]) of 15.4 mg/kg, an MIC (S. epidermidis; [4]) of 62.5 µg/mL (≈ 218 µM) and an ED50 (E. coli [2]; [5]) of 39.7 mg/kg. The MIC (E. Coli [1]; [4]) was ≥ 200 µg/mL.

With CN(C)S(=O)(=O)c1ccc(N2CC(CO)OC2=O)cc1 (racemic) [Example 3a, dl-N,N-dimethyl-4-[5-(hydroxymethyl)-2-oxooxazolidin-3-yl]benzenesulfonamide] the MIC (S. epidermidis; [4]) was 50 µg/mL (≈ 166 µM) and the MIC (E. Coli [1]; [4]) was > 200 µg/mL.

For O=C1OC(CO)CN1c1ccc(S(=O)(=O)NC(=O)C(Cl)(Cl)Cl)cc1 (racemic) [Example 35, dl-2,2,2-Trichloro-N-[4-[5-(hyroxymethyl)-2-oxooxazolidin-3-yl]phenylsulfonyl]acetamide], the ED50 (Staphylococcus aureus; [3]) was 58.5 mg/kg, the MIC (S. epidermidis; [4]) was > 200 µg/mL and the MIC (E. Coli [1]; [4]) was > 200 µg/mL.

[N-]=[N+]=NS(=O)(=O)c1ccc(N2C[C@@H](CO)OC2=O)cc1 [Example 5, l-4-[5-(Hydroxymethyl)-2-oxooxazolidin-3-yl]benzenesulfonyl Azide] gave an ED50 (Staphylococcus aureus; [3]) of 24.9 mg/kg, an MIC (S. epidermidis; [4]) of 2.4 µg/mL (≈ 8.05 µM) and an ED50 (E. coli [2]; [5]) of 14.9 mg/kg. The MIC (E. Coli [1]; [4]) was 7.9 µg/mL (≈ 26.5 µM).

CCC(=O)OCC1CN(c2ccc(S(N)(=O)=O)cc2)C(=O)O1 (racemic) [Example 19, dl-4-[5-(Propionyloxymethyl)-2-oxooxazolidin-3-yl]-benzenesulfonamide] was tested, and the ED50 (Staphylococcus aureus; [3]) was 166 mg/kg, the MIC (S. epidermidis; [4]) was 25 µg/mL (≈ 76.1 µM) and the ED50 (E. coli [2]; [5]) was > 360 mg/kg. For the same molecule, the MIC (E. Coli [1]; [4]) was > 100 µg/mL.
